Test results published in patent US20080009546A1 (Chevron U.S.A. Inc., priority 2005, published 2008).
Like-named read-outs stand apart in the source and are kept apart here.

How the values were obtained:
[1] = test system: primary neurons from rat cerebral cortex; test: NMDA-induced LDH release assay in primary cortical neurons (neuroprotection); format: cell-based; details: for EC50: Rattus norvegicus, Primary neuron, two experiments, 300 uM NMDA + 50 μM glycine 15 minutes, LDH after 24 hours, read-out: average EC50 (±SD), NMDA-induced LDH release
Procedure: The neuroprotective properties of drugs have been studied in vitro, using neurons cultured from cortex, cerebellum or retina. […] Neurotoxicity is determined in this assay by measuring lactate dehydrogenase (LDH), a method which is simple, accurate and reproducible. We conducted pilot studies to test if poly-lysine-coated plates would be suitable as a matrix upon which to plate fetal neurons, compared to astrocyte-coated plates. We also compared the use of growth medium to neurobasal medium supplemented with B27 in the pilot experiments. The concentrations of NMDA (300-500 μM), glycine (10-50 μM), and memantine (10-100 μM) were varied, and optimum concentrations and times determined from these pilot studies were then chosen for the main study. The assay is described below.
Fetal rat neocortical cells were cultured on a mouse astroglial feeder layer. To obtain mouse astroglial cells for the feeder layer, cortices were harvested from 1-day old Swiss Webster mice (Charles River, Hollister, Calif.) according to the procedure described by Rose et al (1993). After dissecting cortices in ice-cold dissecting medium, they were minced and incubated in 0.09% trypsin in media stock for 1 hr, followed by resuspension in growth medium containing 10% equine serum and 10% fetal bovine serum. A single-cell suspension was obtained by triturating through fire-bored glass pipettes, and the resulting cell suspension was plated at a density of 0.5-0.75 hemispheres/24-well plate/9.6 ml, with 0.4 ml/well. Plates were incubated in a humidified incubator at 37° C., 5% CO2. Astroglial cells become confluent in about 2-3 weeks, at which time these cultures are ready to be used as feeder layers upon which neuronal cultures can be plated. Neuronal cells were obtained from gestational Sprague-Dawley rats E16-E18, using a similar dissection procedure. Rat embryos were dissected to obtain cortical tissue, which was plated as a single-cell suspension at a density of 1.4 hemispheres/24-well plate/9.6 ml, with 0.4 ml/well. These cells were plated on the existing astroglial feeder layer, and were incubated at 37° C., 5% CO2. After 5 days in culture, cytosine arabinoside (10 μM) was added to the wells to inhibit glial cell proliferation, and after 24 hours, the medium was replaced with fresh growth medium. Cells were fed with fresh growth medium every 2 days, until the experiments were performed. For coating plates with poly-lysine, we used poly-d-lysine hydrobromide (Sigma Cat # P7280) at a concentration of 0.1 mg/ml to coat each well using a minimum volume of 0.2 ml/well. After coating for 5 minutes, the solution was aspirated and wells were rinsed thoroughly with sterile tissue culture grade water. After drying for 2 hours, plates were ready for use. Neuronal cultures were plated onto poly-lysine-coated plates at the same density as above. For the pilot study, some of the cultures were fed with 1:1 ratio of growth medium: neurobasal medium (GIBCO)+B-27 supplement (2%), while the rest of the cultures were fed with growth medium alone (Losi et al., 2006). For the main study, we used astroglial feeder layers to plate the neuronal cultures, and used a mix (1:1) of growth medium with neurobasal medium+B-27 supplement for feeding the cultures.
After 11-14 days in culture, neuronal cells were confluent and experiments were performed. Cells were washed twice using sterile Locke's buffer (154 mM NaCl, 5.6 mM KCl, 2.3 mM CaCl2, 3.6 mM NaHCO3, 5.5 mM D-glucose, 5 mM HEPES, pH 7.4), and then exposed to the various treatment compounds. […] After 15 minutes, cultures were washed twice and incubated overnight in media stock. After 24 hours, supernatants and lysates were collected to measure LDH activity. LDH activity was measured by the reduction of NAD, which was utilized in the stoichiometric conversion of a tetrazolium dye using a kit (Sigma TOX-7). Supernatants were removed from the wells and centrifuged before LDH measurements. The adherent cells were lysed to obtain total LDH. […]

NMDA receptor = test: [3H]MK-801 binding assay, NMDA receptors in guinea pig brain membranes; details: for Relative affinity: compared to that of Memantine; for Ki: read-out: Ki
Procedure: Hartley guinea pigs were sacrificed, and their brains were quickly removed and weighed. The brains then were homogenized in 50 mM Tris HCl buffer, pH 7.7, using a Polytron homogenizer. The homogenate was centrifuged at 40,000×g for 15 min, rehomogenized, and centrifuged again. The final pellet was resuspended in Tris-HCl, pH 7.7, at a final concentration of 6.67 mg original wet weight of tissue/ml. […] The samples were then filtered through glass fiber filters on a Tomtec cell harvester. The filters were washed 3 times with 3 ml of cold buffer. Filters were dried overnight and counted next day on a Wallac Betaplate Reader.
The binding experiments were conducted as follows. […] For each compound, graphs were prepared containing individual competition curves obtained for that compound. IC50 values and Hill coefficients were calculated using the program Prism. Ki values were calculated using the Chang Prusoff transformation: Ki=IC50/(1+L/Kd)
where L is radioligand concentration and Kd is the binding affinity of the radioligand, as determined previously by saturation analysis. […] In each experiment, one standard compound was simultaneously run on each 96 well plate.

[2] = guinea pig brain membrane preparation (Table 29)
[3] = NMDA 300 μM + 10 μM glycine, astrocyte-coated rat neurons, GM/NB + B-27 fed, 21 hour incubation
[4] = NMDA 300 μM + 10 μM glycine, poly-lysine-coated rat neurons, GM/NB + B-27 fed, 40 hour incubation
[5] = NMDA 300 uM + 50 uM glycine, astrocyte-coated rat neurons, GM/NB + B-27 fed, 24 hour incubation
[6] = NMDA 300 uM + glycine 50 uM, Plate #4, poly-lysine-coated rat neurons, GM/NB + B-27 fed, 24 hour incubation
[7] = NMDA 300 uM + glycine 50 uM, Plate #5, astrocyte-coated rat neurons, GM fed, 24 hour incubation
[8] = NMDA 300 μM - 21 hr, astrocyte-coated rat neurons, GM/NB + B-27 fed, 21 hour incubation
[9] = NMDA 300 uM - 40 hr, poly-lysine-coated rat neurons, GM/NB + B-27 fed, 40 hour incubation
[10] = NMDA 500 μM + 10 μM glycine, astrocyte-coated rat neurons, GM/NB + B-27 fed, 21 hour incubation
[11] = NMDA 500 uM + 10 uM glycine, poly-lysine-coated rat neurons, GM/NB + B-27 fed, 40 hour incubation
[12] = NMDA 500 μM - 21 hr, astrocyte-coated rat neurons, GM/NB + B-27 fed, 21 hour incubation
[13] = NMDA 500 uM - 40 hr, poly-lysine-coated rat neurons, GM/NB + B-27 fed, 40 hour incubation

CC12CC3CC4C5CC(N)(CC41)CC2C5C3 [MDT-24, 1-methyl-4-aminodiamantane]
EC50 [1]: 34.3 ± 11.3 µM | Relative affinity (NMDA receptor): 0.045 | Ki (NMDA receptor; [2]): 13.4 ± 5.1 µM

CC12CC3CC4C1CC1CC2C(N)(C3)C4(C)C1 (stereo not drawn) [MDT-43, 1,6-dimethyl-2-aminodiamantane]
EC50 [1]: 28.4 ± 12.8 µM | Relative affinity (NMDA receptor): 0.143 | Ki (NMDA receptor; [2]): 5.1 ± 0.7 µM

CC12CC3C4CC5(C)CC3C(C1)C(N)(C5)C4C2 [MDT-51, 4,9-dimethyl-1-aminodiamantane]
EC50 [1]: 15.7 ± 9.1 µM | Relative affinity (NMDA receptor): 0.155 | Ki (NMDA receptor; [2]): 4.7 ± 2.4 µM

CN[C@H](CC(=O)O)C(=O)O [NMDA]
% (Control Wash = 100) [1, 3]: 144% | Secreted LDH (Avg) [1, 3]: 0.44 | Secreted/(total + secreted) (Avg) [1, 3]: 11.95 | Total LDH (Avg) [1, 3]: 3.25 | % (Control Wash = 100) [1, 4]: 116% | Secreted LDH (Avg) [1, 4]: 0.39 | Secreted/(total + secreted) (Avg) [1, 4]: 13.33 | Total LDH (Avg) [1, 4]: 2.56 | % (Control Wash = 100) [1, 5]: 271% | Secreted LDH (Avg) [1, 5]: 0.76 | Secreted/(total + secreted) (Avg) [1, 5]: 19.61 | Total LDH (Avg) [1, 5]: 3.10 | % (Control Wash = 100) [1, 6]: 163% | Secreted LDH (Avg) [1, 6]: 0.69 | Secreted/(total + secreted) (Avg) [1, 6]: 17.79 | Total LDH (Avg) [1, 6]: 3.19 | % (Control Wash = 100) [1, 7]: 109% | Secreted LDH (Avg) [1, 7]: 0.20 | Secreted/(total + secreted) (Avg) [1, 7]: 6.37 | Total LDH (Avg) [1, 7]: 2.90 | % (Control Wash = 100) [1, 8]: 166% | Secreted LDH (Avg) [1, 8]: 0.52 | Secreted/(total + secreted) (Avg) [1, 8]: 13.82 | Total LDH (Avg) [1, 8]: 3.22 | % (Control Wash = 100) [1, 9]: 127% | Secreted LDH (Avg) [1, 9]: 0.45 | Secreted/(total + secreted) (Avg) [1, 9]: 14.55 | Total LDH (Avg) [1, 9]: 2.61 | % (Control Wash = 100) [1, 10]: 139% | Secreted LDH (Avg) [1, 10]: 0.51 | Secreted/(total + secreted) (Avg) [1, 10]: 11.56 | Total LDH (Avg) [1, 10]: 3.91 | % (Control Wash = 100) [1, 11]: 114% | Secreted LDH (Avg) [1, 11]: 0.44 | Secreted/(total + secreted) (Avg) [1, 11]: 13.07 | Total LDH (Avg) [1, 11]: 2.92 | % (Control Wash = 100) [1, 12]: 147% | Secreted LDH (Avg) [1, 12]: 0.51 | Secreted/(total + secreted) (Avg) [1, 12]: 12.23 | Total LDH (Avg) [1, 12]: 3.65 | % (Control Wash = 100) [1, 13]: 125% | Secreted LDH (Avg) [1, 13]: 0.48 | Secreted/(total + secreted) (Avg) [1, 13]: 14.35 | Total LDH (Avg) [1, 13]: 2.91 | Ki (NMDA receptor; standard compounds at the NMDA site (Table 27)): 596 µM
